US7851487B2, “Use of tetrahydropyridines in the treatment of central nervous system disorders” (The Research Foundation of State University of New York, priority 2006, dated 2010)

Columns and labels:
[1] = molecular target: T1, Serotonin 5HT2A (Homo sapiens, UniProt P28223); assay: Radioligand binding, Serotonin 5HT2A ([3H]Ketanserin)
T1 construct: host or cells: CHO-K1 cells
Protocol: (§1) The assays utilized human neuroreceptors and were performed under the experimental parameters set forth in Table 2 using standard techniques.
(§2) For Table 3, IC50 values were determined by non-linear, least squares regression analysis using Data Analysis Toolbox™ (MDL Information Systems, San Leandro, Calif., USA). Inhibition constants (KI) were calculated using the equation of Cheng and Prusoff (Cheng, Y., et al. Biochem. Pharmacol. 22:3099-3108, 1973) using the observed IC50 of the tested compound, the concentration of radioligand employed in the assay, and the values for the KD of the ligand. The Hill coefficient (nH), defining the slope of the competitive binding curve, was calculated using the Data Analysis Toolbox™. Biochemical assay results are presented as the percent inhibition of specific binding or activity unless indicated otherwise. The experiments summarized in Table 3 utilized human dopamine D1, D2 s, D21, D3, D4.2, D4.4, serotonin 5HT1A, 5HT2A, 5HT2C, 5HT6, 5HT7, dopamine transporter (DAT), serotonin transporter (SERT) and the norepinephrine transporter (NET), as indicated in Table 3.

[2] = molecular target: T2, Serotonin 5HT1A (Homo sapiens, UniProt P08908); assay: Radioligand binding, Serotonin 5HT1A; settings: read-out: Percentage Inhibition
T2 sequence (P08908 1-422): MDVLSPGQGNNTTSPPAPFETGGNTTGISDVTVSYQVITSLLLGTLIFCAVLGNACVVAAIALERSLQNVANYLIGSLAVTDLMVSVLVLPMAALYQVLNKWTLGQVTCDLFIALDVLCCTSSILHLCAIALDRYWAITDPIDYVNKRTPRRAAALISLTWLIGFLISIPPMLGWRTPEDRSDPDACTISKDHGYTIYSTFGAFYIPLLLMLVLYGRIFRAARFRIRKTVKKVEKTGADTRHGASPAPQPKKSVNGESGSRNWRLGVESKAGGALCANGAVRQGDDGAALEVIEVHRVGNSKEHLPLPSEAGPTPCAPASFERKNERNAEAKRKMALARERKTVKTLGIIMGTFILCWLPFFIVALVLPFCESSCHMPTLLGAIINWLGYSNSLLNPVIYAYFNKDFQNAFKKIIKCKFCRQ
Protocol: as §1, §2

[3] = molecular target: T3, Serotonin transporter (SERT) (Homo sapiens, UniProt P31645); assay: Radioligand binding, Serotonin transporter (SERT) ([3H]Paroxetine)
T3 construct: host or cells: HEK-293 cells
Protocol: as §1, §2

[4] = molecular target: T4, Dopamine transporter (DAT) (Homo sapiens, UniProt Q01959); assay: Radioligand binding, Dopamine transporter (DAT) ([125I]RTI-55)
T4 construct: host or cells: CHO-K1 cells
Protocol: as §1, §2

[5] = system: ckr mouse; assay: Motor activity in chakragati (ckr) mice; assay type: in vivo; settings: 10 mg/kg intraperitoneal, 20 minutes after injection, monitored 15 minutes
Protocol: The mouse also presents lateral ventricular enlargement, which may mirror neuropathological observations in shizophrenia. […] We have further validated this model by testing risperidone, clozapine, haloperidol and pimozide in the ckr mouse. The behavioral output was assayed by measuring the rate of hyperactivity and circling after administration.
A stock solution of compound 2 was dissolved in DMSO, and then diluted to 10 mg/10 ml with distilled water such that the final concentration of DMSO was 0.5%. Each animal received 10 mg/kg of the test drug in a volume of 0.1 ml per 10 g. Additional drugs were tested in parallel in a similar manner.
Twenty ckr mice (male and female, 3 months old) were randomly assigned to receive the test drug (compound 2) or 0.5% DMSO vehicle. The drug was tested in 5 mice. Each treatment was separated by a minimum washout period of 3 days. On the day of testing, mice were brought into the behavioral test room and allowed to acclimatize for at least 1 hour. They then received intraperitoneal injections of the 0.1 ml/10 g (10 mg/kg) of the test drug solution or vehicle. They were returned to their cage and 20 minutes later they were placed in a 190 mm diameter, 300 mm deep circular recording chamber. […] The mice were monitored with an overhead video camera for 15 minutes. […] The total distance moved, the velocity of movement, and the time spent moving were calculated. […]

[6] = molecular target: T5, Serotonin 5HT2C (Homo sapiens, UniProt P28335); assay: Radioligand binding, Serotonin 5HT2C ([3H]Mesulergine)
T5 construct: host or cells: CHO-K1 cells
T5 sequence (P28335 33-458): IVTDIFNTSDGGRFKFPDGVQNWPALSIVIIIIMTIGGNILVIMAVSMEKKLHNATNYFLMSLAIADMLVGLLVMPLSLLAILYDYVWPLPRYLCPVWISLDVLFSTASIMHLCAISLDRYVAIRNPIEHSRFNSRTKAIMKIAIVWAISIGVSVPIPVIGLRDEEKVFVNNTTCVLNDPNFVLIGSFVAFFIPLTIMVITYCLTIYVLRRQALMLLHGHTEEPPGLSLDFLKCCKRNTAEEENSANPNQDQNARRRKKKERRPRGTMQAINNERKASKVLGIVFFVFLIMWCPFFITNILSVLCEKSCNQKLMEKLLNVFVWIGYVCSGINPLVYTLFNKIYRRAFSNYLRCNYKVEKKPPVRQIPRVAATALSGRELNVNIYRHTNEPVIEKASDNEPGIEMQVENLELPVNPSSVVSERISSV
Protocol: as §1, §2

[7] = molecular target: T6, Dopamine D2s (Homo sapiens, UniProt P14416); assay: Radioligand binding, Dopamine D2S ([3H]Spiperone)
T6 construct: host or cells: CHO cells
Protocol: as §1, §2

[8] = molecular target: Dopamine D3 (Homo sapiens, UniProt P35462); assay: Radioligand binding, Dopamine D3; settings: Dopamine D3, 10 μM; read-out: Percentage Inhibition
Protocol: as §1, §2

T1 sequence (P28223 whole entry): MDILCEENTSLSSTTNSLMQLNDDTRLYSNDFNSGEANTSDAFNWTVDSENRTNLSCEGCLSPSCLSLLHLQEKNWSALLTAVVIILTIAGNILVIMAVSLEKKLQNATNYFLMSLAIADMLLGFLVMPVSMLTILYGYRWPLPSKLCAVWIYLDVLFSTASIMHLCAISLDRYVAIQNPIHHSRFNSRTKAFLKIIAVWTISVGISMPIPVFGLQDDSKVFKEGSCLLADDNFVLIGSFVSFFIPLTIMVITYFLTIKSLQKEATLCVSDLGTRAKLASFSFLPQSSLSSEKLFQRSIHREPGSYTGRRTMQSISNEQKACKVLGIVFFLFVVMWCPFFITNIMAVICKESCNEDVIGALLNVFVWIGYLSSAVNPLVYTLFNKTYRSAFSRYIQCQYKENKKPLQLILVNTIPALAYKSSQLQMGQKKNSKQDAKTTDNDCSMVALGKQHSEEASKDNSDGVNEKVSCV
T6 sequence (P14416 1-414 isoform P14416-2): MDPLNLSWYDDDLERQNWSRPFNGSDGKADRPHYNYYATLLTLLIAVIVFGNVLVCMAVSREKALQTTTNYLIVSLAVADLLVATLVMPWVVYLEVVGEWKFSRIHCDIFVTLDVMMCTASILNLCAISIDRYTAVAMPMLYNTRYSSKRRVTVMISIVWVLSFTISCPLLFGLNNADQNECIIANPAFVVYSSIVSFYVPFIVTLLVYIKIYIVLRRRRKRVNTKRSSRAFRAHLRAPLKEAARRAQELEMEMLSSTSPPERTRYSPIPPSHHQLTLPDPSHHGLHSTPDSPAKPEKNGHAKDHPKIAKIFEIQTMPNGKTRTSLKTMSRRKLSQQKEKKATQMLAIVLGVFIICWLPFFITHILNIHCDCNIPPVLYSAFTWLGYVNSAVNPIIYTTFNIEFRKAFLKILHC
T4 sequence (Q01959 whole entry): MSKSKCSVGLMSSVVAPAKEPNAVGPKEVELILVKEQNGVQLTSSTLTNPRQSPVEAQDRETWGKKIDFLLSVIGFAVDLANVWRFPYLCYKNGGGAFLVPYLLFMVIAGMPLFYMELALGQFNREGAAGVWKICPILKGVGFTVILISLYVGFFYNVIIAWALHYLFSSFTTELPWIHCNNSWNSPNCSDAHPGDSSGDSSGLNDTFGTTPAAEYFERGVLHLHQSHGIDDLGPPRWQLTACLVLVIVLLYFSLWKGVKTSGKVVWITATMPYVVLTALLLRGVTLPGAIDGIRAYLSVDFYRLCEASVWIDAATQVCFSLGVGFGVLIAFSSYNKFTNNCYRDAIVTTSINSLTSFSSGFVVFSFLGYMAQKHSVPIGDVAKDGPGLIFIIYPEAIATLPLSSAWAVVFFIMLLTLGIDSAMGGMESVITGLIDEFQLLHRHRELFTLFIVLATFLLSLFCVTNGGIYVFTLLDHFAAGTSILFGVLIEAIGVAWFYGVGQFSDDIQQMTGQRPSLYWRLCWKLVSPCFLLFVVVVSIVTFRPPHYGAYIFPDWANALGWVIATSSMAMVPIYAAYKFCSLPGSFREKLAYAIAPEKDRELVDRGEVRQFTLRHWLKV
T3 sequence (P31645 whole entry): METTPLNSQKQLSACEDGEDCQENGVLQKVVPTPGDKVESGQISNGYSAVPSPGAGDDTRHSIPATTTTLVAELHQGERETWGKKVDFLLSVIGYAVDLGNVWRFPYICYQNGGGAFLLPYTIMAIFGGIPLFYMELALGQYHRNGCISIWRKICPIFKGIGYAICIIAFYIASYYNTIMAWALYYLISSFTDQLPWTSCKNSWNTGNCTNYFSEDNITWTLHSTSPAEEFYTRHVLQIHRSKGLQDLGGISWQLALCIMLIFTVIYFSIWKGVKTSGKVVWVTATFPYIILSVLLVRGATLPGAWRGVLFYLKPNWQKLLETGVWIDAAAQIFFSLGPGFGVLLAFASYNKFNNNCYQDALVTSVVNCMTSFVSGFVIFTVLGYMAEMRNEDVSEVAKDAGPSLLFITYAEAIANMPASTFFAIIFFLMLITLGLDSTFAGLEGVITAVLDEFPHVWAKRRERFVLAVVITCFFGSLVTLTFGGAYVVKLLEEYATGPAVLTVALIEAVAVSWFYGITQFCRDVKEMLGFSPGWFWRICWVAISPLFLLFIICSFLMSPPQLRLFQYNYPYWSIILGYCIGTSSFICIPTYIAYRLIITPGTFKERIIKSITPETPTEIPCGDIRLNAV
Dopamine D3, sequence (P35462 whole entry): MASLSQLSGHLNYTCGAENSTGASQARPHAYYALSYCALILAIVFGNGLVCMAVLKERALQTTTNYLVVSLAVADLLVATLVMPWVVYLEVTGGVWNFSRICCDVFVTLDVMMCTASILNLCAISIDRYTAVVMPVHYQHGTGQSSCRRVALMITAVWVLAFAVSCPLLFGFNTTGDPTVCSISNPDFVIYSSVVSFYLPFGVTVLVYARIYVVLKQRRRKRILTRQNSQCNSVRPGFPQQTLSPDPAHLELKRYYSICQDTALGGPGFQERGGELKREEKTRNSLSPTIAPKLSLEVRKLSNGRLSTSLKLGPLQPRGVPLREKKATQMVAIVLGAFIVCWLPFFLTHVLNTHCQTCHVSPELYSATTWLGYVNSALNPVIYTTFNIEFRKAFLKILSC

SMILES: COC(=O)[C@@H](c1ccc(-c2ccccc2)cc1)[C@H]1C=CCCN1 [Compound 2]
- IC50 [1]: 0.797 µM
- Ki [1]: 0.228 µM
- inhibition at 1 µM ([1]; Serotonin 5HT2A, 1 μM, read-out: Percentage Inhibition): 61%
- inhibition at 10 µM ([1]; Serotonin 5HT2A, 10 μM, read-out: Percentage Inhibition): 94%
- nH ([1]; Serotonin 5HT2A, Hill coefficient): 1.02
- inhibition at 10 µM [2]: 13%
- IC50 [3]: 14.3 µM
- Ki [3]: 2.33 µM
- inhibition at 10 µM ([3]; Serotonin transporter (SERT), 10 μM, read-out: Percentage Inhibition): 48%
- inhibition at 30 µM ([3]; Serotonin transporter (SERT), 30 μM, read-out: Percentage Inhibition): 70%
- nH ([3]; Serotonin transporter (SERT), Hill coefficient): 1.24
- IC50 [4]: 13.8 µM
- Ki [4]: 11 µM
- inhibition at 10 µM ([4]; Dopamine transporter (DAT), 10 μM, read-out: Percentage Inhibition): 33%
- inhibition at 100 µM ([4]; Dopamine transporter (DAT), 100 μM, read-out: Percentage Inhibition): 74%
- nH ([4]; Dopamine transporter (DAT), Hill coefficient): 1.3
- time spent moving [5]: significantly decreased the time spent moving
- velocity of movement [5]: trend towards decreased velocity
- IC50 [6]: 13.4 µM
- Ki [6]: 7.03 µM
- inhibition at 10 µM ([6]; Serotonin 5HT2C, 10 μM, read-out: Percentage Inhibition): 52%
- inhibition at 30 µM ([6]; Serotonin 5HT2C, 30 μM, read-out: Percentage Inhibition): 70%
- nH ([6]; Serotonin 5HT2C, Hill coefficient): 1.12
- IC50 [7]: 51.8 µM
- Ki [7]: 18.7 µM
- inhibition at 10 µM ([7]; Dopamine D2s, 10 μM, read-out: Percentage Inhibition): 26%
- inhibition at 100 µM ([7]; Dopamine D2s, 100 μM, read-out: Percentage Inhibition): 62%
- nH ([7]; Dopamine D2s, Hill coefficient): 0.788
- inhibition at 10 µM [8]: 15%
